In the supplement of paper PMC10307832:

How the values were obtained:
Test in all cases: relative viability (nuclei count vs DMSO), 5 days (fraction); higher = more cells survive
[1] = compound: CC1=CC(=NN1)NC2=CC(=NC(=N2)/C=C/C3=CC=CC=C3)N4CCN(CC4)C + NC(=O)Nc1cc(-c2cccc(F)c2)sc1C(=O)N[C@H]1CCCNC1 [AZD7762] (partner 0.2 µM)
How it was run: (§1)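 Values are medians from duplicate plates. Each reflects relative viability, defined as the nuclei count of treated wells over that of vehicle wells. Lung cancer cell lines in 1536-well plates were pin-tool dosed one day after seeding with one drug alone or with a fixed anchor-drug dose plus five library-drug doses (not always all listed) in √10 steps, then fixed, stained and imaged at 4× after 5 days.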

[2] = compound: CC1=CC(=NN1)NC2=CC(=NC(=N2)/C=C/C3=CC=CC=C3)N4CCN(CC4)C + CC(=O)c1c(C)c2cnc(Nc3ccc(N4CCNCC4)cn3)nc2n(C2CCCC2)c1=O [Palbociclib] (partner 0.5 µM)
How it was run: as §1

[3] = compound: CC1=CC(=NN1)NC2=CC(=NC(=N2)/C=C/C3=CC=CC=C3)N4CCN(CC4)C + Nc1ncn([C@H]2C[C@H](O)[C@@H](CO)O2)c(=O)n1 [Decitabine] (partner 2 µM)
How it was run: as §1

Obatoclax + Decitabine = compound: COC1=CC(c2cc3ccccc3[nH]2)=N/C1=C\c1[nH]c(C)cc1C [Obatoclax] + Nc1ncn([C@H]2C[C@H](O)[C@@H](CO)O2)c(=O)n1 [Decitabine] (partner 2 µM)
How it was run: as §1

Cell Line	relative viability ([1]; first compound 0.08 µM)	relative viability ([1]; first compound 0.253 µM)	relative viability ([1]; first compound 0.8 µM)	relative viability ([1]; first compound 2.53 µM)	relative viability ([1]; first compound 8 µM)	relative viability ([2]; first compound 0.08 µM)	relative viability ([2]; first compound 0.253 µM)	relative viability ([2]; first compound 0.8 µM)	relative viability ([2]; first compound 2.53 µM)	relative viability ([2]; first compound 8 µM)	relative viability ([3]; first compound 0.08 µM)	relative viability ([3]; first compound 0.253 µM)	relative viability ([3]; first compound 0.8 µM)	relative viability ([3]; first compound 2.53 µM)	relative viability ([3]; first compound 8 µM)	relative viability (Obatoclax + Decitabine; first compound 0.01 µM)	relative viability (Obatoclax + Decitabine; first compound 0.03162 µM)	relative viability (Obatoclax + Decitabine; first compound 0.1 µM)	relative viability (Obatoclax + Decitabine; first compound 0.3162 µM)	relative viability (Obatoclax + Decitabine; first compound 1 µM)
ChaGo-K-1	0.823	0.935	0.824	0.439	0.241	0.756	0.952	0.933	0.378	0.17	0.509	0.587	0.465	0.383	0.21	0.497	0.476	0.506	0.509	0.516
HCC-827	0.188	0.199	0.217	0.197	0.0973	0.445	0.514	0.505	0.501	0.231	0.196	0.353	0.337	0.285	0.189	0.332	0.273	0.337	0.223	0.355
NCI-H1993	0.712	0.622	0.775	0.33	0.3	0.639	0.397	0.711	0.49	0.267	0.526	0.598	0.616	0.47	0.445	0.659	0.545	0.618	0.611	0.612
NCI-H647	0.328	0.598	0.499	0.103	0.0452	0.429	0.365	0.332	0.115	0.0496	0.32	0.429	0.36	0.121	0.122	0.422	0.27	0.438	0.3	0.112
NCI-H522	0.859	0.934	0.933	0.516	0.587	1.04	1.19	1.31	0.726	0.357	0.593	0.685	0.69	0.601	0.391	0.708	0.642	0.607	0.747	0.608
NCI-H460	0.6	0.72	0.681	0.372	0.0422	0.159	0.145	0.149	0.0195	0.0182	0.531	0.522	0.466	0.0534	0.0287	0.521	0.385	0.522	0.133	0.0944
EMC-BAC-2	1.11	1.22	1.1	0.654	0.354	0.519	0.543	0.504	0.454	0.273	0.989	0.91	0.946	0.689	0.282	0.95	0.977	–	0.98	0.541
